Data as given in patent US5362743A, “Aminoquinoline derivatives” (Pfizer Inc., priority 1993, dated 1994).

How the values were obtained:
osteoclasts = assay: bone slice assay: bone resorption by isolated osteoclasts (scanning electron microscopy); assay type: cell-based, neonatal rat; conditions: isolated osteoclasts on bone slices
Experimental: 155, (1985), as well as in Endocrinology, Vol. 116, p. 234 (1985). In this assay, osteoclasts are mechanically disaggregated from neonatal rat long bones into Hepes-buffered medium 199 (available from Flow Laboratories of Irvine, […] in the United Kingdom). The suspension is agitated with a pipette and the larger fragments were allowed to settle for a period of 30 seconds. The cells are then added to two wells of a multiwell-dish containing bone slices, with each of said slices measuring 2.5 mm^2. After incubating at 37° C. for a period of 15 minutes, the aforesaid bone slices are then removed, washed in medium 199 and placed in individual wells of a 96-well plate (also available from Flow Laboratories). These latter bone slices are then incubated overnight in a total volume of […] of culture medium consisting of 10% newborn calf-serum (from Flow Laboratories) in Hanks-buffered MEM (also from Flow Laboratories) in the presence or absence of the test compound. Bone resorption is quantified by means of scanning electron microscopy. […] The number and size of the osteoclastic excavations, and the plan area of bone resorbed is recorded. Differences between groups are then analyzed by means of Student's t-Test.

gastric H^+ /K^+ -ATPase = biological target: T1, gastric H^+ /K^+ -ATPase (Sus scrofa, UniProt P19156); assay: gastric H+/K+-ATPase inhibition in isolated porcine gastric microsomes (phosphate release); assay type: biochemical
T1 construct: preparing the microsomes from hog gastric mucosa; from tissue; host or cells: hog gastric mucosa (microsomes)
T1 sequence (P19156 2-1034 limits assumed): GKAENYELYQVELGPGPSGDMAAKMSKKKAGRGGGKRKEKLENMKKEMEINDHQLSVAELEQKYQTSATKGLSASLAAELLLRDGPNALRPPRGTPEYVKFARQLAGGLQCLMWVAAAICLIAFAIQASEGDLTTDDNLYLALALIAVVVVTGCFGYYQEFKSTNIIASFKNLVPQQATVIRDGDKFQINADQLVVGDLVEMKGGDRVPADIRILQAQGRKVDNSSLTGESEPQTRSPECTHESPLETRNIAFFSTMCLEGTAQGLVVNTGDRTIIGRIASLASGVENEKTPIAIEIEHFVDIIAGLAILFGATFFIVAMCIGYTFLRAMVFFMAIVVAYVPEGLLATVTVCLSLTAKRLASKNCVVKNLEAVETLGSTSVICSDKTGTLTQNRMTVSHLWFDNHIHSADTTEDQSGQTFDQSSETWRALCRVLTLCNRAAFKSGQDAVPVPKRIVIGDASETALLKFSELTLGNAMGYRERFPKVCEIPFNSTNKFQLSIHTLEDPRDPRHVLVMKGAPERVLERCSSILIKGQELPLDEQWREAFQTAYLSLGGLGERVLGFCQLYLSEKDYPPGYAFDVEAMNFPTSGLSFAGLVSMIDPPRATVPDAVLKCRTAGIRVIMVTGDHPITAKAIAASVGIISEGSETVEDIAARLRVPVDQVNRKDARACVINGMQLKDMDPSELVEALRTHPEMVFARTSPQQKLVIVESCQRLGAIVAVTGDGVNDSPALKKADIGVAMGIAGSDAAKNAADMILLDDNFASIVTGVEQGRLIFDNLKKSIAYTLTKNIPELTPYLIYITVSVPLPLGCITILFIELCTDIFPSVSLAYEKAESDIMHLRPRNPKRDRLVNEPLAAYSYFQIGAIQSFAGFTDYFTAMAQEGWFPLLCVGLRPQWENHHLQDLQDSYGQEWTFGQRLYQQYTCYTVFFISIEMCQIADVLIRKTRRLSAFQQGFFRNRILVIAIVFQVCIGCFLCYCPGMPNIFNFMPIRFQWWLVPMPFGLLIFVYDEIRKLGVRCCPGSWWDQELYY
T1 sequence (P18434 whole entry partner): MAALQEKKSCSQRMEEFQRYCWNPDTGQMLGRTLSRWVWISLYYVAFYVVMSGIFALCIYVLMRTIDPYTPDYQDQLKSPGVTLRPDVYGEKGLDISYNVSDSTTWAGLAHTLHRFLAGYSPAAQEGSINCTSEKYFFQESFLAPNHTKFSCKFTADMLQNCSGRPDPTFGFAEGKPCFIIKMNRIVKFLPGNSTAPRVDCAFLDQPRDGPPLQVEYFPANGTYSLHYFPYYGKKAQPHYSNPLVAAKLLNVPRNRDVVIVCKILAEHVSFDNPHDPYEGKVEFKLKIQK
Experimental: The activity of the compounds of the present invention as anti-ulcer agents, useful in the treatment of gastric disease in mammals, such as peptic ulcers, etc., is assessed by their ability to inhibit gastric H^+ /K^+ -ATPase, using isolated porcine gastric microsomes and essentially employing a modification of the method first described by G. Saccomani et al., as initially reported in Biochimica Biophysica Acta, Vol. 465, p. 311 (1977). The modification involves preparing the microsomes from hog gastric mucosa according to the procedure first described by L-A. Yeh et al., in Membrane Biochemistry, Vol. 9, p. 129 (1991). The H^+ /K^+ -ATPase enzyme activity is assayed according to the procedure described by N. Chang et al., in Biochimica Biophysica Acta, Vol. 464, p. 313 (1977), using a medium containing […], 3 mM ATP, 50 mM Tris-HCl (pH 7.4) and 2 mM MgCl2 with or without 10 mM KCl in a final volume of 1.1 mL. The incubation step is initially carried out at 37° C. for a period of 15 minutes. The reaction is then terminated by the addition of 100 μL of 50% TCA (trichloroacetic acid). Phosphate release is next measured spectrophotometrically in the manner described by C. H. Fiske et al., in the Journal of Biological Chemistry, Vol. 66, p. 375 (1925).

`CCOC(=O)CCC(=O)c1cnc2c(OC)cccc2c1Nc1ccccc1C` [Example 1, 3-(3-ethoxycarbonylpropionyl)-8-methoxy-4-(2-methylphenylamino)quinoline] was tested, and the minimal effective concentration (osteoclasts; Rattus norvegicus, Osteoclast, overnight incubation, dose-responsive, read-out: concentration level at which statistically significant inhibition of bone resorption occurs) was 0.1 µM, the “inhibition of lacunae formation and bone resorption (in words)” value (osteoclasts) was “potent inhibitor of lacunae formation and of resultant bone resorption” and the inhibition at 10 µM (gastric H^+ /K^+ -ATPase; at 10 μM) was roughly 50%. For the same molecule, the “nature of H+/K+-ATPase inhibition” value (gastric H^+ /K^+ -ATPase; porcine gastric microsomes) was “both reversibly and specifically” and the IC50 (gastric H^+ /K^+ -ATPase; porcine gastric microsomes, 37° C., 15 minutes, pH 7.4, read-out: IC50 value range, inhibition of gastric H+/K+-ATPase) was 10 to 20 µM.
